One test relates to promoter of Oct4. The test is described as follows: ChIP-qPCR of H3K4Me3 at the promoter of Oct4 in reprogramming-resistant fibroblasts. It is filed as cell-based, human. The note with it: HF4, in combination with OSKM overexpression. From the text:
The importance of active tri-methylation of histone H3 lysine 4 (H3K4Me3) in promoting transcription factors binding to an ‘open’ chromatin state and thereby initiation of reprogramming is known in the art. In good agreement, the inventors found the abundance of H3K4Me3 in O4I3-treated reprogramming-resistant fibroblasts by immunostaining (FIG. 14) and immunoblotting (FIG. 5B). To directly study if O4I3 facilitated the binding of H3K4Me3 to the promoter of Oct4, a CHIP-qPCR experiment was performed.
In reprogramming-resistant HF4, the level of H3K4Me3 at the promoter of OCT4 was increased by OSKM, but was still nearly 1,000-fold lower than that in PSCs (FIG. 19A). […] However, a clear influence on H3K4 methylation was not observed in the presence of KDM5B-, KDM5C-, or KDM5D-siRNA (FIG. 19A). […] Indeed, the reprogramming efficiency is negatively correlated with the expression of KDM5A in 11 HFs (FIG. 19D). Moreover, KDM5A siRNA increased the global level of H3K4Me3 in a dose-dependent manner (FIG. 19E). Of note, the alternation in the occupation of H3K27Me3 at the promoter of OCT4 was more refractory to chemical inhibition or genetic repression of KDM5s in the inventors' experiments (FIG. 19B). […]
For `Clc1ccc(N/N=C(\c2ccccc2)c2ccccn2)nc1` [JIB-04, reference compound], the “levels of H3K4Me3 at the promoter of OCT4” value was “significantly elevated”.

The next test has as its system OCT4-promoter. The test is described as follows: Luciferase reporter assay in HEK-OCT4 cells. The class given is cell-based.
Conditions: not given
As for the experimental part: In an effort to find such chemical structures able to induce pluripotency, a high-throughput screening (HTS) was performed. The screen was based on cellular luciferase reporter assays under the control of the promoter activity of a pluripotency-associated transcription factor (Oct4) in HEK293 cells.
The inventors adopted Hantzsch thiazole synthesis (FIG. 20A) and produced a series of new O4I2-ester derivatives (FIG. 20B). Their activities were measured in three luciferase report cell lines, namely HEK-OCT4, driven by the activation of OCT4-promoter, and NCCIT-OCT4 and NCCIT-NANOG, whose intensities are controlled by endogenous OCT4 and NANOG respectively. […] Carboxylesterase 1 (CES1) is an enzyme majorly contributing to ester-to-acid conversion.
For orientation: A reporter such as luciferase makes a cellular process visible.
Consider `O=C(O)c1csc(Nc2ccc(Cl)cc2)n1` [O4I2-COON, 2-(4-chlorophenylamino)thiazole-4-carboxylic acid], for which the “activity in HEK-OCT4 cells” value was “inactive”.

The next test has as its system Oct4. The test is described as follows: Luciferase reporter assay in NCCIT-Oct4 cells. It is filed as cell-based, human. The note with it: 100 nM, NCCIT-Oct4 cells.
Turning to `Cc1ccc2nc(-c3ccc(F)cc3)cn2c1` [Compound 102, 2-(4-fluorophenyl)-6-methyl-imidazo[1,2-a]pyridine], the “Oct4 inducing activity as compared to the activity of O4I3 (101)” value is listed as “increased the activity”. Same read-out and setting: for `Cc1ccc2nc(-c3ccc(Cl)cc3)cn2c1` [Compound 103, 2-(4-chlorophenyl)-6-methyl-imidazo[1,2-a]pyridine] the value was “increased the activity”. The same measure, in the same setting: as for `Cc1ccc2nc(-c3ccc(Br)cc3)cn2c1` [Compound 104, 2-(4-bromophenyl)-6-methyl-imidazo[1,2-a]pyridine], the entry is “increased the activity”.

On to `Cc1ccc2nc(-c3ccc([N+](=O)[O-])cc3)cn2c1` [Compound 105, 6-methyl-2-(4-nitrophenyl)imidazo[1,2-a]pyridine], for which the “Oct4 inducing activity as compared to the activity of O4I3 (101)” value is reported as “significantly reduced the induction”.

Regarding `COc1ccc(-c2cn3cc(C)ccc3n2)cc1` [Compound 106, 2-(4-methoxyphenyl)-6-methyl-imidazo[1,2-a]pyridine], the “Oct4 inducing activity as compared to the activity of O4I3 (101)” value was “significantly reduced the induction”.

For the compound `Cc1ccc2nc(-c3ccc(O)cc3)cn2c1` [Compound 107, 4-(6-methylimidazo[1,2-a]pyridin-2-yl)phenol], the “Oct4 inducing activity as compared to the activity of O4I3 (101)” value is reported as “significantly reduced the induction”. Same read-out and setting: as for `Cc1ccc2nc(-c3ccc(C#N)cc3)cn2c1` [Compound 108, 4-(6-methylimidazo[1,2-a]pyridin-2-yl)benzonitrile], the entry is “significantly reduced the induction”. Same read-out and setting: for `Cc1ccc2nc(-c3ccccc3)cn2c1` [Compound 109, 6-methyl-2-phenyl-imidazo[1,2-a]pyridine] the value was “not affected”.

For another test, the system named is human fibroblasts. The test is described as follows: qRT-PCR of reprogramming associated genes in human fibroblasts. It is filed as cell-based. Details: expression of OCT4, SOX2, and E-Cadherin in HFs: dose or concentration left out as unconfirmed. The note with it: JIB-04 treated fibroblasts. How it is done: Analyzing the effects of O4I3 on human fibroblasts, the activation of reprogramming associated genes, including an about 10-fold induction of Oct4, Nanog and Lin28, and an about 100-fold increase of Sox2 and E-Cadherin mRNA levels was detected. In particular, expression of several essential genes for reprogramming is equal to those in pluripotent stem cells, such as Esrrb, FGF2 and Sall4 (FIG. 12).
Quantitative reverse-transcription real-time-PCR was performed using a Light Cycler 96 (Roche, Germany) following the manufacturer's protocol. Briefly, total RNA was isolated from cells using TRIzol (Qiagen, Germany) or NucleoSpin®RNA Plus (Macherey-Nagel, Germany). The same amount of RNA was used to reverse-transcriptional synthesize cDNA by using random primers ProtoScript® First Strand cDNA Synthesis Kit (NEB, Germany). qPCR was performed using the SYBR Green PCR master mix (qPCRBIO SyGreen Mix Lo-Rox, Nippon Genetics, Germany) and the primer pairs indicated below (MWG, Eurofins, Germany). Actin was used as an endogenous control. Data were normalized to the value of untreated cells showing the mean±SD of quadruplicates and are representative of at least three independent experiments.
Background: Real-time PCR tracks product formation cycle by cycle.
As for `Clc1ccc(N/N=C(\c2ccccc2)c2ccccn2)nc1` [JIB-04, reference compound], the “expression of OCT4, SOX2, and E-Cadherin in HFs” value is on record as “induction”.

In another test the test system is Oct4. The test is described as follows: Luciferase reporter assay in NCCIT-Oct4 cells. It is filed as cell-based, human. Conditions: histone demethylase inhibitors, 48 h. How it is done: The ability of the lead compound to induce Oct4 at translational level was tested in a luciferase reporter cell line in human embryonic carcinoma NCCIT cells driven by Oct4 response elements (NCCIT-Oct4). The compound lead to a nearly 10-fold induction of Oct4 at 10 nM compared to untreated cells (FIG. 1B). Consequently, the lead compound was named “Oct4 inducing compound 3” (O4I3).
Luciferase reporter assay was performed using Beatle Juice Kit (PJK, Germany) according to the manufacturer's instruction. NCCIT-Oct and NCCIT-Nanog reporter cells were plated into a 24-well plate (100,000 cells/well) for 24 h. Cells were treated with compounds as indicated and harvested with luciferase lysis buffer (25 mM Tris phosphate buffer pH=7.8, 4 mM EGTA, 1% Triton X-100, 10% glycerol and 2 mM fresh DTT, filtered through 0.45 μm sterile filter) at 37° C. for 15 min. The protein concentration was determined by Bradford assay (Sigma, Germany). 100 μL reaction mixture containing luciferin and ATP was added to 20 μL cell lysis in a white plate (Gibco, Germany), incubated for 5 min and measured by a luminometer plate-reader. The activity was determined as percent luminous intensity of treated cells over control cells from at least five-independent experiments.
`CC(C)c1c(-c2ccccc2)[nH]c2c(C#N)cnn2c1=O` [CPI-455]: the “induction of OCT4 expression in NCCIT-OCT4 reporter cell line” value is reported as 3 fold. Still for that read-out and setting: as for `CCOC(=O)CCNc1cc(N2CCc3ccccc3CC2)nc(-c2ccccn2)n1` [GSK-J4], the entry is “not”; as for `Clc1ccc(N/N=C(\c2ccccc2)c2ccccn2)nc1` [JIB-04, reference compound], 5 fold; as for `CN(C)NC(=O)CCC(=O)O` [daminozide], “not”.

(Values after patent US20200062719A1, “Application of Imidazopyridine Derivatives in Regenerative Medicine” (University of Heidelberg, priority 2018, published 2020).)
